Laboratory results as given in US20080063628A1, “METHODS TO PROMOTE CELL DIFFERENTIATION” (priority 2006, published 2008).

Experiments:
[1] = system: Neonatal fibroblasts (Hs27); experiment: Trichostatin A 48 h treatment, gene expression by Real-Time PCR (Example 1); assay type: cell-based, human
Procedure: Neonatal fibroblasts, also designated Hs27, were derived from human foreskins and obtained from the American Type Culture Collection (ATCC). Panc-1 cells are a transformed cell line derived from a pancreatic epitheloid carcinoma of ductal origin, also obtained from ATCC.
Fibroblasts or Panc-1 cells were seeded into a 6-well tissue culture plate at a density of 50,000 cells/cm^2. Both cell types were cultured in medium containing 10% FBS and DMEM under standard cell culture conditions (37° C., 5% CO2). After reaching confluence (2-3 days), trichostatin A diluted in dimethyl sulfoxide (DMSO) and medium was added at either 2.5 μM or 5 μM to the cultures. Parallel cultures were treated with an equivalent concentration of DMSO as a vehicle control.
RNA samples were obtained from the treated cultures 48 hours after the addition of trichostatin A or DMSO. The culture medium was removed, the cells were washed with phosphate buffered saline (PBS), and RLT Lysis buffer containing β-mercaptoethanol (Qiagen) was added. The samples were homogenized using Qiashredder columns (Qiagen), and RNA was purified using the RNeasy Mini Kit (Qiagen). RNA quantity and quality was determined using a spectrophotometer, and cDNA was made using the iScript cDNA synthesis kit (BioRad).
The expression levels of Sox17, HNF-3 beta, Pdx-1, insulin, and glucagon were determined by Real-Time PCR (RT-PCR), as described in Example 15. Samples of 20 ng cDNA were used in each reaction. RT-PCR reactions were performed on the Applied Biosystems 7500, and data was analyzed using the accompanying software. Human pancreas cDNA was included as a positive control. Results were normalized against GAPDH expression levels.
(§1) Real-time PCR amplifcation and quantitative analysis. Unless otherwise stated, all reagents were purchased from Applied Biosystems. Real-time PCR reactions were performed using the ABI PRISM™ 7500 Sequence Detection System. TAQMAN™ FAST UNIVERSAL PCR MASTER MIX™ (ABI, CA) was used with 20 ng of reverse transcribed RNA in a total reaction volume of 20 μl. Each cDNA sample was run in duplicate to allow correction of pipetting errors. Primers and FAM-labeled TAQMAN™ probes were used at concentrations of 200 nM. The level of expression for each target gene was normalized using the pre-developed Applied Biosystem's human glyceraldehyde-3-phosphate dehydrogenase (GAPDH) endogenous control kit. Primers and probes were designed using either ABI PRISM PRIMER EXPRESS™ software or a pre-developed ABI gene analysis kit. For each gene, either one of the primers or the probe were designed to be exon-boundary spanning. This eliminated the possibility of the primers/probe binding to any genomic DNA present. The primer and probe sets are listed as follows: Pdx-1 (Hs00426216), Insulin (Hs00355773), glucagon (Hs00174967), and FoxA2 (HNF 3-beta) (Hs00232764). The remaining primers were designed using the PRIMERS program (ABI, CA). After an initial 95° C. incubation for 20 sec, samples were cycled 40 times in two stages: a denaturation step at 95° C. for 3 sec, followed by an annealing/extension step at 60° C. for 30 sec.
For each primer/probe set, a cycle time value was determined as the cycle number at which the fluorescence intensity of the PCR reaction reached a specific value in the middle of the exponential region of amplification. An increase in expression of a gene corresponded to a decrease in the number of cycles required for the fluorescence intensity to reach this value.

[2] = system: amniotic fluid-derived cell line; experiment: Two high dose trichostatin A treatments (first 48 h), gene expression by RT-PCR (Example 9); assay type: cell-based, human; settings: for Gata1 gene expression / HNF-3 beta gene expression / Insulin gene expression / Pdx-1 gene expression / sox17 gene expression: 1.25 μM 0-48 h + 96-120 h;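 for Gata-1 RT-PCR detection cycle: lower cycle number means higher gene expression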;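 for HNF-3 beta RT-PCR detection cycle: lower cycle number means higher gene expression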
Procedure: Several cell lines obtained from different amniotic fluid specimens (see Example 14) and pancreas donors (see Example 13) were tested with similar results. Two lines at similar passage number but derived from different amniotic fluid specimens are shown in Table VIII-A and Table VIII-B for this example. One of these cell lines was also used in examples 2 and 4 above. In addition, this example also contains comparison data in Table VIII-C and Table VIII-D for a single pancreatic-derived stromal line grown to early and late passage number.
Amniotic fluid derived cells or pancreatic-derived stromal cells were seeded into 24-well tissue culture plates at a density of 5000/cm^2 and cultured in AMNIOMAX (Invitrogen) or DMEM with 10% FBS respectively under standard cell culture conditions until confluent. After reaching confluence, amniotic fluid derived cells were treated at time 0 hours with a dose of 1.25 μM trichostatin A, and pancreatic-derived stromal cells were treated with a dose of 5.0 μM trichostatin A solubilized in DMSO and medium. At time 48 hours, cell cultures underwent a complete medium change to remove all traces of trichostatin A. At time 96 hours, cell cultures were re-fed with fresh medium and received a second dose of trichostatin A at the same concentration as used previously. At time 120 hours, cell cultures again underwent a complete medium change and were cultured for an additional 24 hours or […] total incubation time. Samples were taken for RT-PCR at the times indicated in Table IX-A to D. RNA samples were obtained daily from the start of the experiment. Culture medium was removed, and cells were washed with PBS then collected in RLT with β-mercaptoethanol (Qiagen). RNA was purified using the RNeasy Mini Kit (Qiagen) and RNA quantity and quality was determined using a spectrophotometer. cDNA was made using the iScript cDNA synthesis kit (BioRad). Human pancreas cDNA was included as a control. Results were normalized against GAPDH expression levels.
[…] Samples of 20 ng cDNA was used in each Real-Time PCR reaction. RT-PCR was performed on the Applied Biosystems 7500, according to the methods described in Example 15. The data were analyzed using the accompanying software.
as §1
For each primer/probe set, a cycle time value was determined as the cycle number at which the fluorescence intensity of the PCR reaction reached a specific value in the middle of the exponential region of amplification. […]

[3] = 1.25 μM, following the addition

SMILES: CC(/C=C/C(=O)NO)=C\[C@@H](C)C(=O)c1ccc(N(C)C)cc1 [trichostatin A]
- GAPDH gene expression ([1]; 2.5 μM): +++ (detectable at less than 35 cycles by RT-PCR with SE less than 0.9)
- HNF-3 beta gene expression ([1]; 2.5 μM): +++ (detectable at less than 35 cycles by RT-PCR with SE less than 0.9)
- Insulin gene expression ([1]; 2.5 μM): nd (not detectable at >40 cycles by RT-PCR)
- PDX-1 gene expression ([1]; 2.5 μM): + (detectable at greater than 35–40 cycles by RT-PCR)
- Sox17 gene expression ([1]; 2.5 μM): +++ (detectable at less than 35 cycles by RT-PCR with SE less than 0.9)
- glucagon gene expression ([1]; 2.5 μM): +++ (detectable at less than 35 cycles by RT-PCR with SE less than 0.9)
- GAPDH gene expression ([1]; 5.0 μM): +++ (detectable at less than 35 cycles by RT-PCR with SE less than 0.9)
- HNF-3 beta gene expression ([1]; 5.0 μM): +++ (detectable at less than 35 cycles by RT-PCR with SE less than 0.9)
- Insulin gene expression ([1]; 5.0 μM): nd (not detectable at >40 cycles by RT-PCR)
- PDX-1 gene expression ([1]; 5.0 μM): + (detectable at greater than 35–40 cycles by RT-PCR)
- Sox17 gene expression ([1]; 5.0 μM): +++ (detectable at less than 35 cycles by RT-PCR with SE less than 0.9)
- glucagon gene expression ([1]; 5.0 μM): +++ (detectable at less than 35 cycles by RT-PCR with SE less than 0.9)
- Gata1 gene expression ([2]; 24 hrs): + (detectable between 35 and 40 cycles by RT-PCR)
- HNF-3 beta gene expression ([2]; 24 hrs): +++ (detectable at less than 35 cycles by RT-PCR with SE less than 0.9)
- Insulin gene expression ([2]; 24 hrs): nd (not detectable at >40 cycles by RT-PCR)
- Pdx-1 gene expression ([2]; 24 hrs): +++ (detectable at less than 35 cycles by RT-PCR with SE less than 0.9)
- sox17 gene expression ([2]; 24 hrs): +++ (detectable at less than 35 cycles by RT-PCR with SE less than 0.9)
- Gata1 gene expression ([2]; 48 hrs): nd (not detectable at >40 cycles by RT-PCR)
- HNF-3 beta gene expression ([2]; 48 hrs): +++ (detectable at less than 35 cycles by RT-PCR with SE less than 0.9)
- Insulin gene expression ([2]; 48 hrs): nd (not detectable at >40 cycles by RT-PCR)
- Pdx-1 gene expression ([2]; 48 hrs): +++ (detectable at less than 35 cycles by RT-PCR with SE less than 0.9)
- sox17 gene expression ([2]; 48 hrs): +++ (detectable at less than 35 cycles by RT-PCR with SE less than 0.9)
- Gata1 gene expression ([2]; 72 hrs): nd (not detectable at >40 cycles by RT-PCR)
- HNF-3 beta gene expression ([2]; 72 hrs): + (detectable between 35 and 40 cycles by RT-PCR)
- Insulin gene expression ([2]; 72 hrs): nd (not detectable at >40 cycles by RT-PCR)
- Pdx-1 gene expression ([2]; 72 hrs): nd (not detectable at >40 cycles by RT-PCR)
- sox17 gene expression ([2]; 72 hrs): +++ (detectable at less than 35 cycles by RT-PCR with SE less than 0.9)
- Gata1 gene expression ([2]; 96 hrs): nd (not detectable at >40 cycles by RT-PCR)
- HNF-3 beta gene expression ([2]; 96 hrs): nd (not detectable at >40 cycles by RT-PCR)
- Insulin gene expression ([2]; 96 hrs): nd (not detectable at >40 cycles by RT-PCR)
- Pdx-1 gene expression ([2]; 96 hrs): nd (not detectable at >40 cycles by RT-PCR)
- sox17 gene expression ([2]; 96 hrs): +++ (detectable at less than 35 cycles by RT-PCR with SE less than 0.9)
- Gata1 gene expression ([2]; 120 hrs): nd (not detectable at >40 cycles by RT-PCR)
- HNF-3 beta gene expression ([2]; 120 hrs): + (detectable between 35 and 40 cycles by RT-PCR)
- Insulin gene expression ([2]; 120 hrs): nd (not detectable at >40 cycles by RT-PCR)
- Pdx-1 gene expression ([2]; 120 hrs): + (detectable between 35 and 40 cycles by RT-PCR)
- sox17 gene expression ([2]; 120 hrs): +++ (detectable at less than 35 cycles by RT-PCR with SE less than 0.9)
- Pdx-1 RT-PCR detection cycle ([2]; 1.25 μM, after the second treatment): 37 cycles
- Gata-1 RT-PCR detection cycle ([2]; 1.25 μM, following first treatment): 37 cycles
- HNF-3 beta RT-PCR detection cycle [2, 3]: 31 cycles
- Pdx-1 RT-PCR detection cycle [2, 3]: 32 cycles
- HNF-3 beta RT-PCR detection cycle ([2]; 1.25 μM, following the second treatment): 35 cycles
